The target of test [1] is Endothelial PAS domain-containing protein 1 (Homo sapiens) (UniProt Q99814). Nature of the test: HIF-2a and HIF-1a reporter inhibition panel, dose response, selectivity assay for HIF-2a inhibitor project, cell-based, luminescence (AID 651581).
In test [2] the target is Hypoxia-inducible factor 1-alpha (Homo sapiens) (UniProt Q16665). The description is as above. To be noted: HIF-1a.

Calls of active or inactive are those of the source. The rule behind the calls is not given here. A value given as a limit tells only on which side of the number the result lay.

Hypoxia-inducible factor 1-alpha (Homo sapiens), sequence (Q16665 whole entry, looked up): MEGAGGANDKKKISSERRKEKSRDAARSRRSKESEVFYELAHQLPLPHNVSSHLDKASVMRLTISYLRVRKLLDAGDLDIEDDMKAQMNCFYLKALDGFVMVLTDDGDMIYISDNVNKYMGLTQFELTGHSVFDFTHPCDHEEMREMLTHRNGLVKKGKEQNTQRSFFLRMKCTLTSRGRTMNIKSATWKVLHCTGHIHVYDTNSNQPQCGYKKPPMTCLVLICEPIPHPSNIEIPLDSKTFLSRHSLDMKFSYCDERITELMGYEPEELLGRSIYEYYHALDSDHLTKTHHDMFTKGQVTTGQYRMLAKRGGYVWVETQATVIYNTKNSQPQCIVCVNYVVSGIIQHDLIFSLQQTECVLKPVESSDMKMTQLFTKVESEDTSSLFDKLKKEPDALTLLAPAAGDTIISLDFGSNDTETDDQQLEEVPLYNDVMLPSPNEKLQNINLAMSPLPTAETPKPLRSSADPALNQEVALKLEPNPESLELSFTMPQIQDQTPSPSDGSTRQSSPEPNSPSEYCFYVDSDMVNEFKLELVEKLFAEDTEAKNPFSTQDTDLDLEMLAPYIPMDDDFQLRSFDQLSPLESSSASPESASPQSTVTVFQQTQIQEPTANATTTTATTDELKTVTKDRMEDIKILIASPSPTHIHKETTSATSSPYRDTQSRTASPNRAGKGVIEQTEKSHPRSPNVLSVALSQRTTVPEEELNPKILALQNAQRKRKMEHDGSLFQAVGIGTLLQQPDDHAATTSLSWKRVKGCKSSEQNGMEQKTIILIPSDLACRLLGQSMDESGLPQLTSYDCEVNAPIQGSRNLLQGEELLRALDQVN

With `O=C(O)c1ccc(N/N=C/c2ccc(C(F)(F)F)cc2)cc1`, the IC50 result was “inactive” in test [1] (HIF-2a PANC, mean of runs) and “inactive” in test [2] (mean of runs). Further, the IC50 in test [1] (HIF-2a PANC, run 1) was 75.9 µM; in test [1] (HIF-2a PANC, run 2) it was 8.53 µM; in test [1] (HIF-2a, mean of runs) it was 9.84 µM; in test [1] (HIF-2a, run 1), 9.59 µM; in test [1] (HIF-2a, run 2), 10.1 µM; in test [2] (run 1), 22.5 µM. The IC50 in test [2] (run 2) is 21.7 µM.
Consider `COc1ccccc1C(C[N+](=O)[O-])c1c(N)n(C)c(=O)n(C)c1=O` (configuration not stated), for which the IC50 in test [1] (HIF-2a PANC, run 1) was greater than 99 µM; in test [1] (HIF-2a PANC, run 2), 51.9 µM; in test [1] (HIF-2a, mean of runs) it was 9.86 µM; in test [1] (HIF-2a, run 1), 10.2 µM; in test [1] (HIF-2a, run 2), 9.56 µM; in test [2] (run 1), 20.9 µM. The same compound yielded an IC50 in test [2] (run 2) of 16.9 µM. Moreover, the IC50 entry in test [2] (mean of runs) was “inactive”.
For `CCOC(=O)c1cccc(COC(=O)c2cccc(-c3nnc(-c4ccccc4)o3)c2)c1`, the IC50 in test [1] (HIF-2a PANC, mean of runs) is > 99 µM (inactive); in test [1] (HIF-2a PANC, run 1), greater than 99 µM; in test [1] (HIF-2a PANC, run 2), greater than 99 µM; in test [1] (HIF-2a, run 1), 13.2 µM; in test [1] (HIF-2a, run 2) it was 16.5 µM; in test [2] (run 1) it was greater than 99 µM. Moreover, in test [2] (run 2), the IC50 was greater than 99 µM. Also, the IC50 entry in test [1] (HIF-2a, mean of runs) is “inactive”.
`CCOC(=O)C1CCN(C(=O)Nc2ccc3snnc3c2)CC1`: the IC50 entry in test [1] (HIF-2a PANC, mean of runs) was “inactive”; in test [1] (HIF-2a, mean of runs), “inactive”. Further, the IC50 in test [1] (HIF-2a PANC, run 1) is 19.4 µM; in test [1] (HIF-2a PANC, run 2), 56.8 µM; in test [1] (HIF-2a, run 1), 8.45 µM; in test [1] (HIF-2a, run 2) it was 14.8 µM; in test [2] (run 1), greater than 99 µM; in test [2] (run 2), greater than 99 µM.
With `Cc1nc2cc(-c3ccccc3)nn2c(C)c1CCC(=O)NCc1ccco1`, the IC50 in test [1] (HIF-2a PANC, mean of runs) was 4.77 µM; in test [1] (HIF-2a PANC, run 1), 6.92 µM; in test [1] (HIF-2a PANC, run 2) it was 2.62 µM; in test [1] (HIF-2a, mean of runs) it was 1.81 µM; in test [1] (HIF-2a, run 1), 1.52 µM; in test [1] (HIF-2a, run 2), 2.1 µM. Besides, the IC50 in test [2] (run 1) and in test [2] (run 2) was greater than 99 µM throughout.
Turning to `COC(=O)c1cccc(-c2noc(-c3ccccc3F)n2)c1`, the IC50 was 9.77 µM in test [1] (HIF-2a PANC, mean of runs); 9.59 µM in test [1] (HIF-2a PANC, run 1); 9.94 µM in test [1] (HIF-2a PANC, run 2); less than 10 µM in test [1] (HIF-2a, mean of runs); less than 10 µM in test [1] (HIF-2a, run 1); less than 10 µM in test [1] (HIF-2a, run 2). In addition, the IC50 in test [2] (run 1) and in test [2] (run 2) was greater than 99 µM throughout.
As to `CC(=O)Nc1ccc(OCC(=O)c2ccc(C)cc2C)cc1`, the IC50 in test [1] (HIF-2a PANC, mean of runs) was 4.2 µM; in test [1] (HIF-2a PANC, run 1) it was 3.04 µM; in test [1] (HIF-2a PANC, run 2), 5.37 µM; in test [1] (HIF-2a, mean of runs) it was 2.47 µM; in test [1] (HIF-2a, run 1), 2.75 µM; in test [1] (HIF-2a, run 2), 2.19 µM. Moreover, the IC50 in test [2] (mean of runs) is 46.2 µM; in test [2] (run 1) it was 4.55 µM; in test [2] (run 2) it was 87.9 µM.
Take `O=C(c1ccccc1)c1cc(Cl)ccc1N1C(=O)C=CC1=O`: the IC50 is 25.3 µM in test [1] (HIF-2a PANC, run 1); greater than 99 µM in test [1] (HIF-2a PANC, run 2); 6.91 µM in test [1] (HIF-2a, mean of runs); 7.05 µM in test [1] (HIF-2a, run 1); 6.78 µM in test [1] (HIF-2a, run 2); 58.4 µM in test [2] (mean of runs). In addition, the IC50 came to 55 µM in test [2] (run 1) and 61.7 µM in test [2] (run 2).
With `Cc1cc(NC(=O)c2ccccc2)c(Cl)cc1N`, the IC50 result in test [1] (HIF-2a PANC, mean of runs) is “inactive”. In addition, the IC50 in test [1] (HIF-2a PANC, run 1) is 10.1 µM; in test [1] (HIF-2a PANC, run 2), 19.5 µM; in test [1] (HIF-2a, mean of runs), 2.75 µM; in test [1] (HIF-2a, run 1), 2.56 µM; in test [1] (HIF-2a, run 2), 2.94 µM; in test [2] (mean of runs) it was 11.5 µM. In addition, the IC50 worked out at 10 µM in test [2] (run 1) and 12.9 µM in test [2] (run 2).
With `Cc1cc(SC#N)cc(C)c1NC(=O)CCl`, the IC50 was greater than 99 µM in test [1] (HIF-2a PANC, run 1); 93.4 µM in test [1] (HIF-2a PANC, run 2); 12.6 µM in test [1] (HIF-2a, run 1); 7.78 µM in test [1] (HIF-2a, run 2); 20.2 µM in test [2] (run 1); 28.5 µM in test [2] (run 2). In addition, the IC50 entry in test [1] (HIF-2a, mean of runs) is “inactive”; in test [2] (mean of runs), “inactive”.
With `COC(=O)CSc1nnc(-c2sc3ccccc3c2Cl)o1`, the IC50 in test [1] (HIF-2a PANC, mean of runs) is 4.99 µM; in test [1] (HIF-2a PANC, run 1), 4.35 µM; in test [1] (HIF-2a PANC, run 2), 5.63 µM; in test [1] (HIF-2a, mean of runs), 2.36 µM; in test [1] (HIF-2a, run 1), 2.08 µM; in test [1] (HIF-2a, run 2), 2.64 µM. Also, the IC50 was 2.3 µM in test [2] (run 1) and 2.49 µM in test [2] (run 2). For the same compound, in test [2] (mean of runs), the IC50 result was “inactive”.
Turning to `CCN(CC)CCCC(C)n1c2nc(=O)[nH]c(=O)c-2nc2cc(Cl)ccc21` (configuration not stated), the IC50 in test [1] (HIF-2a PANC, mean of runs) was 3.53 µM; in test [1] (HIF-2a PANC, run 1) it was 2.56 µM; in test [1] (HIF-2a PANC, run 2), 4.5 µM; in test [1] (HIF-2a, mean of runs) it was 9.02 µM; in test [1] (HIF-2a, run 1) it was 8.43 µM; in test [1] (HIF-2a, run 2), 9.61 µM. The IC50 in test [2] (run 1) came out at 18.1 µM; in test [2] (run 2) it was 15.8 µM. The IC50 result in test [2] (mean of runs) was “inactive”.
`Cc1csc(NC(=O)c2cn3ccccc3n2)n1`: the IC50 in test [1] (HIF-2a PANC, mean of runs) was 17.5 µM; in test [1] (HIF-2a PANC, run 1) it was 20.3 µM; in test [1] (HIF-2a PANC, run 2) it was 14.8 µM; in test [1] (HIF-2a, mean of runs), 7.98 µM; in test [1] (HIF-2a, run 1), 7.58 µM; in test [1] (HIF-2a, run 2), 8.38 µM. The IC50 in test [2] (run 1) was 11.9 µM; in test [2] (run 2) it was 12.5 µM. Besides, in test [2] (mean of runs), the IC50 entry is “inactive”.
As for `Cc1ccc(C(C)C)c(OCc2ccc(C(=O)N/N=C/c3ccc(C(=O)O)cc3)cc2)c1`, the IC50 in test [1] (HIF-2a PANC, mean of runs) is 0.378 µM; in test [1] (HIF-2a PANC, run 1), 0.507 µM; in test [1] (HIF-2a PANC, run 2), 0.248 µM; in test [1] (HIF-2a, mean of runs) it was 0.45 µM; in test [1] (HIF-2a, run 1), 0.421 µM; in test [1] (HIF-2a, run 2), 0.479 µM. Moreover, the 50% inhibitory concentration (IC50) in test [2] (run 1) and in test [2] (run 2) was greater than 99 µM throughout.
Consider `CC(=O)N/N=C\c1cccc(OC/C=C/c2ccccc2)c1`, for which the IC50 is > 99 µM (inactive) in test [1] (HIF-2a PANC, mean of runs); greater than 99 µM in test [1] (HIF-2a PANC, run 1); greater than 99 µM in test [1] (HIF-2a PANC, run 2); less than 10 µM in test [1] (HIF-2a, mean of runs); less than 10 µM in test [1] (HIF-2a, run 1); less than 30 µM in test [1] (HIF-2a, run 2). Also, the IC50 in test [2] (run 1) and in test [2] (run 2) was greater than 99 µM each time.
For the compound `Cn1ncc2c(O/N=C(\N)c3ccc(C(C)(C)C)cc3)ncnc21`, the IC50 in test [1] (HIF-2a PANC, run 1) was less than 30 µM; in test [1] (HIF-2a PANC, run 2) it was 45.6 µM; in test [1] (HIF-2a, mean of runs) it was 4.17 µM; in test [1] (HIF-2a, run 1), 4.26 µM; in test [1] (HIF-2a, run 2) it was 4.08 µM; in test [2] (run 1), greater than 99 µM. In test [2] (run 2), this compound showed an IC50 of 48.2 µM.
With `O=C(NNc1nc2ccccc2o1)c1ccccc1`, the IC50 is > 99 µM (inactive) in test [1] (HIF-2a PANC, mean of runs); greater than 99 µM in test [1] (HIF-2a PANC, run 1); greater than 99 µM in test [1] (HIF-2a PANC, run 2); 6.37 µM in test [1] (HIF-2a, mean of runs); 6.68 µM in test [1] (HIF-2a, run 1); 6.06 µM in test [1] (HIF-2a, run 2). The values for the IC50 in test [2] (run 1) and in test [2] (run 2) were 46.1 µM and greater than 99 µM, respectively.
In the case of `COC(=O)CCCNC(=O)CCc1nnc(-c2ccc(-c3ccccc3)cc2)o1`, the IC50 was greater than 99 µM in test [1] (HIF-2a PANC, run 1); 21.3 µM in test [1] (HIF-2a PANC, run 2); 2.82 µM in test [1] (HIF-2a, mean of runs); 3.04 µM in test [1] (HIF-2a, run 1); 2.6 µM in test [1] (HIF-2a, run 2); greater than 99 µM in test [2] (run 1). The IC50 in test [2] (run 2) is greater than 99 µM.
On to `N#C/C(=C\c1ccccc1)C(=O)N(c1ccccn1)C1CCCCC1`, for which the IC50 result in test [1] (HIF-2a PANC, mean of runs) is “inactive”; in test [1] (HIF-2a, mean of runs) it was “inactive”; in test [2] (mean of runs), “inactive”. Also, the IC50 came to 98.1 µM in test [1] (HIF-2a PANC, run 1); 71.2 µM in test [1] (HIF-2a PANC, run 2); 14.9 µM in test [1] (HIF-2a, run 1); 13.7 µM in test [1] (HIF-2a, run 2); 25.8 µM in test [2] (run 1); 24.7 µM in test [2] (run 2).
